Measured values published in patent US7615244B2, “Glycopeptide and peptide having a kokumi taste imparting function, and method of imparting the kokumi taste to foods” (Ajinomoto Co., Inc., priority 2003, dated 2009).
Marks after values point to notes of the source that are not given here.

How the values were obtained:
[1] = Organoleptic evaluation of beef extract solution, paired comparison test; parameters: key to Kokumi taste vs control (mark): Δ: Equal or inferior in the kokumi taste to the control; O: Stronger in the kokumi taste than the control; OO: Remarkably stronger in the kokumi taste than the control; conditions: for Kokumi taste vs control (mark): 14 panelists
Method: In order to verify a taste improving function for a commercially available beef extract (manufactured by Bordon), the three glycopeptides and peptide were each added in an amount of 10 ppb by weight to a beef extract solution formulated according to the mixing ratio shown in the following Table 6, and then an organoleptic evaluation was performed in the same manner as in Example 1. Each resulting solution was subjected to organoleptic evaluation by 16 taste panelists according to a paired comparison test, using the non-added beef extract solution as the control. […]
In order to verify a taste improving function for a commercially available beef extract (manufactured by Bordon) in the same manner as in the organoleptic evaluation of Example 1, the glycopeptides and peptides listed in the following Table 15, were each added in an amount of 10 ppb, 1 ppm, or 100 ppm by weight to beef extract solutions formulated according to the mixing ratio shown in Table 6 above. Each resulting solution was subjected to organoleptic evaluation by 14 taste panelists according to a paired comparison test, using the non-added beef extract solution as the control.

[2] = Organoleptic evaluation of cheese sauce, paired comparison test; conditions: added 1 ppm by weight; vs non-added; n = 14
Method: In order to verify a taste improving function for cheese sauce, the three glycopeptides and peptide were each added in an amount of 1 ppm by weight to a cheese sauce prepared according to the formulation shown in the following Table 4, and then an organoleptic evaluation was performed in the same manner as in Example 1. Each of the sauces added with one of the three glycopeptides and peptide was subjected to organoleptic evaluation by 14 taste panelists according to a paired comparison test, using non-added cheese sauce as the control.
In order to verify the taste improving function of the liquid comprising enzymatically decomposed wheat gluten, that is, a seasoning containing the three glycopeptides and peptide, for cheese sauce, the seasoning comprising enzymatically decomposed wheat gluten (that is, the powdered seasoning of Example 1 formed from the decolorized liquid from which the activated carbon had been removed) was added in an amount of 0.05% by weight to a cheese sauce prepared according to the formulation shown in Table 4, and then an organoleptic evaluation was performed in the same manner as in Example 1. Organoleptic evaluation was carried out by 20 taste panelists according to a paired comparison test, using the non-added cheese sauce as the control.

[3] = Organoleptic evaluation of chicken consommé soup, paired comparison test by taste panelists; conditions: for Panelists choosing the sample as the one with a stronger kokumi taste: vs non-added soup, n = 16
Method: 2 g of a commercially available chicken consommé soup (manufactured by Ajinomoto Co., Inc.) was added to 100 mL of water to prepare a chicken consommé soup, and then each of the fractions was added to the chicken consommé soup. […] These two fractions were each again fractionated by reversed phase HPLC (“Carbon-500” manufactured by Tosoh Corporation). The following conditions were used to obtain two peaks at 44.8 minutes and 46.6 minutes. For the fractionation, two solvents A and B were used. Solvent A was a 0.05% by volume trifluoroacetic acid (TFA) aqueous solution, and Solvent B was a 0.05% by volume TFA 50% by volume acetonitrile aqueous solution. The column was equilibrated with Solvent A. After injecting a sample, the proportion of Solvent B was increased linearly to 100% in 167 min. The fractionated two peaks were analyzed with an LC-MS/MS (liquid chromatography-tandem mass spectrometry), to confirm that the former peak had fragments, that is, [M+H]^+=m/z 1640, 1494, 1478, 1362, 1332, 1316, 1200, 1184, 1038, 876, 819, 673, and 470, and that the latter peak had fragments, that is, [M+H]^+=m/z 1478, 1346, 1332, 1316, 1200, 1184, 1038, 876, 819, 673, and 470. Further, the former and latter peaks were analyzed by some known methods of analysis such as NMR, a peptide sequencer, an enzymatic decomposition treatment, and the like (R.Takahashi, “Biochemical Experiment Methods 23: Method for Studying Glycoprotein Sugar Chain,” published by Gakkai Shuppan Center, 1989), to confirm that the peaks were due to the glycopeptides having the structures represented by Sequence formulas (I) (SEQ ID NO: 1) and (II) (SEQ ID NO: 1), respectively.
In order to confirm the kokumi taste imparting function and the threshold value of the glycopeptides and the peptide represented by Sequence formulas (I) to (III) (SEQ ID NO: 1) (hereinafter, the glycopeptides and the peptide represented by Sequence formulas (I) to (III) may also be referred to as Glycopeptide I, Glycopeptide II, and Peptide III, respectively), Glycopeptide I and Glycopeptide II were each added to a chicken consommé soup in such that the concentration thereof would be 0.1 ppb to 1.0 ppm by weight upon eating, and Peptide III was added to the chicken consommé soup in such that the concentration thereof would be 0.1 ppb to 100 ppm by weight upon eating. As a control, a non-added chicken consommé soup was prepared. For each of the three glycopeptides and peptide, organoleptic evaluation was carried out by 16 taste panelists according to a paired comparison test (the panelists should choose one with a stronger kokumi taste). In the above organoleptic evaluation, there was a significant difference in the effect caused by adding Glycopeptide I or II or Peptide III in the case where the concentration thereof was 1 ppb by weight or more upon eating. Therefore, the lower limit of the threshold value was set to 1 ppb by weight.

[4] = Organoleptic evaluation of Mentsuyu, paired comparison test; conditions: added 1 ppb by weight; vs non-added; n = 16
Text: In order to verify a taste improving function for “Mentsuyu” (a soup for Japanese noodle) in the same manner as in the organoleptic evaluation of Example 1, the three glycopeptides and peptide were each added in an amount of 1 ppb by weight to Mentsuyu prepared according to the formulation shown in the following Table 2. Each resulting solution was subjected to organoleptic evaluation by 16 taste panelists according to a paired comparison test, using non-added Mentsuyu as the control.
In order to verify the taste improving function of a liquid comprising enzymatically decomposed wheat gluten, that is, a seasoning containing the three glycopeptides and peptide, for Mentsuyu, the seasoning comprising enzymatically decomposed wheat gluten (that is, the decolorized liquid of Example 1 from which the activated carbon had been removed) was added in an amount of 0.1% by volume to Mentsuyu prepared according to the formulation shown in Table 2, and then an organoleptic evaluation was performed in the same manner as in Example 1. Organoleptic evaluation was carried out by 20 taste panelists according to a paired comparison test, using the non-added Mentsuyu as the control.

Row | Substance | Kokumi taste vs control (mark) ([1]; added 1 ppm by weight) | Kokumi taste vs control (mark) ([1]; added 10 ppb by weight) | Kokumi taste vs control (mark) ([1]; added 100 ppm by weight) | Stronger kokumi taste (panelists) [2] | Panelists choosing the sample as the one with a stronger kokumi taste ([3]; amount added 0.1 ppb) | Panelists choosing the sample as the one with a stronger kokumi taste ([3]; amount added 1.0 ppb) | Panelists choosing the sample as the one with a stronger kokumi taste ([3]; amount added 1.0 ppm) | Panelists choosing the sample as the one with a stronger kokumi taste ([3]; amount added 10 ppb) | Panelists choosing the sample as the one with a stronger kokumi taste ([3]; amount added 100 ppm) | Lower limit of the threshold value (kokumi taste imparting function) ([3]; concentration upon eating giving a significant difference vs non-added soup) | Stronger kokumi taste (panelists) ([1]; added 10 ppb by weight, vs non-added, n = 16) | Stronger kokumi taste (panelists) [4]
1 | Asn-His | ◯ | ◯ | ◯◯ | – | – | – | – | – | – | – | – | –
2 | Val-Asn-His | ◯◯ | ◯ | ◯◯ | – | – | – | – | – | – | – | – | –
3 | Val-Asn-His-Thr (VNHT; printed: Val-Asn-His-Thr) [Peptide III] | ◯◯ | ◯◯ | ◯◯ | 12* | 9 | 13* | 16*** | 14** | 16*** | 1 ppb by weight | 13* | 13*
4 | His-Ser [reference compound] | Δ | Δ | Δ | – | – | – | – | – | – | – | – | –
5 | Val-Gln [reference compound] | Δ | Δ | Δ | – | – | – | – | – | – | – | – | –
6 | Val-Asn [reference compound] | Δ | Δ | Δ | – | – | – | – | – | – | – | – | –
7 | Asn-His-Thr | ◯◯ | ◯ | ◯◯ | – | – | – | – | – | – | – | – | –
